The values that follow come from paper PMC5708362, “A systematic analysis of atomic protein–ligand interactions in the PDB” (MedChemComm, 2017).

What is called IC50 is the concentration at which inhibition is half-maximal.

Assay [1] concerns human EGFR. More on the design: method as in PMID 23611691. The settings on record: human EGFR inhibitors; cited from earlier work.
Assay [2] relates to human EGFR. In words: EGFR inhibition (salt bridge pair). Type of assay: biochemical. The conditions noted are these: 9 (carbon in place of terminal N,N-dimethylamino nitrogen) vs 10.
In another assay the test system is human sEH. More on the design: method as in PMID 19746975. The settings on record: human sEH inhibitors; cited from earlier work.
Another assay concerns thrombin. More on the design: method as in PMID 20148533. The conditions noted are these: thrombin inhibitors; cited from earlier work.
The next assay deals with human factor Xa. In words: factor Xa inhibition, ammonium methylation series (cation–π). Type of assay: biochemical. The settings on record: trimethylated ammonium 17 vs tert-butyl analog 15.

As for `CC(C)CCCC(=O)Nc1cccc(-c2c(-c3ccccc3)oc3ncnc(N[C@H](CO)c4ccccc4)c23)c1` [compound 9], the IC50 in the assay on human EGFR [1] was above 25000 nM. Moreover, in the assay with human EGFR [2], the “potency reduced by fold” value is given as “more than 800 fold”. For `O=C(NCCCc1ccccc1)c1cccnc1` [compound 5], the IC50 in the assay with human sEH was 700 nM. As to `O=C(NCCC(c1ccccc1)c1ccccc1)c1cccnc1` [compound 6], the IC50 in the assay with human sEH is […].

With `CN(C)CCCC(=O)Nc1cccc(-c2c(-c3ccccc3)oc3ncnc(N[C@H](CO)c4ccccc4)c23)c1` [compound 10], the IC50 in the assay with human EGFR [1] is 29 nM. In the case of `O=C(NCc1cccc(Cl)c1)[C@@H]1CCCN1C(=O)CCc1ccccc1` [compound 3], the IC50 with thrombin is 94300 nM. Turning to `C[N+](C)(C)CCCN1C(=O)[C@@H]2[C@H](C1=O)[C@H](c1cc(-c3ccc(Cl)s3)on1)N1CCC[C@@H]21` (racemic) [(±)-17], in the assay on human factor Xa, the “fold increase in potency” value amounted to 60 fold.
